The values below come from ChEMBL document CHEMBL5338786, “In Silico-Guided Rational Drug Design and Synthesis of Novel 4-(Thiophen-2-yl)butanamides as Potent and Selective TRPV1 Agonists” (J Med Chem, 2023).

Activity calls are given as the source filed them. Where only a bound is given, the exact number is not on record here.

What is called IC50 is the point on the concentration scale where inhibition reaches its midpoint. As a reminder, the EC50 is the concentration that produces a half-maximal response.

For data set [1], the target named is T1, Transient receptor potential cation channel subfamily A member 1 (Rattus norvegicus, UniProt Q6RI86). Briefly: Antagonist activity at rat recombinant TRPA1 expressed in HEK293 cells assessed as desensitization by measuring inhibition of allyl isothiocyanate induced intracellular calcium accumulation preincubated for 5 mins followed by allyl isothiocyanate stimulation by Fluo4-AM based assay. Format: cell-based. (In general: Calcium flux is commonly read through the fluorescence of an indicator in the cells.)

Data set [2] concerns the target T1, Transient receptor potential cation channel subfamily A member 1. Briefly: (§1) Agonist activity at rat recombinant TRPA1 expressed in HEK293 cells assessed as increase in intracellular calcium accumulation by Fluo4-AM based assay. Format: cell-based.
The test system of another data set is HaCaT. The data set is described as follows: Cytotoxicity against human HaCaT cells expressing TRPV1 receptors assessed as reduction in cell viability at 0.1 to 10 uM measured after 48 hrs by Alamar Blue assay. It counts as toxicity, cell-based. The conditions noted are these: dose 0.1-10 µM.
The nature of data set [3]: Toxicity in C57BL/6J mouse assessed as alteration in nociceptive threshold at 0.0075 to 0.15 ug per paw, sc measured after 10 mins. It counts as organism-based. The conditions noted are these: in vivo, dose 0.0075-0.15 µg.
The target of data set [4] is Transient receptor potential cation channel subfamily V member 4 (Rattus norvegicus, UniProt Q9ERZ8). Briefly: Antagonist activity at rat recombinant TRPV4 expressed in HEK293 cells assessed as desensitization by measuring inhibition of GSK1016790A induced intracellular calcium accumulation preincubated for 5 mins by Fluo4-AM based assay. It counts as cell-based.
The next data set relates to HUVEC. Briefly: Cytotoxicity against HUVEC cells expressing TRPV1 receptors assessed as reduction in cell viability at 0.1 to 10 uM measured after 48 hrs by Alamar Blue assay. Format: toxicity, cell-based. The conditions noted are these: human, dose 0.1-10 µM.
The target of data set [5] is Transient receptor potential cation channel subfamily M member 8 (Rattus norvegicus, UniProt Q8R455). Briefly: Antagonist activity at rat recombinant TRPM8 expressed in HEK293 cells assessed as desensitization by measuring inhibition of icilin induced intracellular calcium accumulation preincubated for 5 mins by Fluo4-AM based assay. Format: cell-based.
In data set [6] the target is Transient receptor potential cation channel subfamily A member 1 (Rattus norvegicus) (UniProt Q6RI86). Briefly: Agonist activity at rat recombinant TRPA1 expressed in HEK293 cells assessed as increase in intracellular calcium accumulation by measuring efficacy by Fluo4-AM based assay relative to allyl isothiocyanate. Format: cell-based.
In data set [7] the target is T2, Transient receptor potential cation channel subfamily V member 1 (Homo sapiens, UniProt Q8NER1). Briefly: Antagonist activity at human recombinant TRPV1 expressed in HEK293 cells assessed as desensitization by measuring inhibition of capsaicin-induced intracellular calcium accumulation preincubated for 5 mins followed by capsaicin stimulation by Fluo4-AM based assay. It counts as cell-based.

In data set [8] the target is T2, Transient receptor potential cation channel subfamily V member 1. Briefly: Agonist activity at human recombinant TRPV1 expressed in HEK293 cells assessed as increase in intracellular calcium level by Fluo4-AM based assay. It counts as cell-based.
For data set [9], the target named is Transient receptor potential cation channel subfamily A member 1 (Rattus norvegicus) (UniProt Q6RI86). The description is as §1. Format: cell-based.
For data set [10], the system named is Mus musculus. Briefly: Antinociceptive activity against formalin-induced nociception in C57BL/6J mouse assessed as total time of nociceptive response at 0.0015 ug per paw, sc pretreated for 10 min followed by formalin challenge and measured after 20 to 60 mins (reference value: 2.18 +/- 0.183 min). Format: functional. The note with it: dose 0.0015 µg, time 30-70 min.

In data set [11] the test system is Mus musculus. The data set is described as follows: Antinociceptive activity against formalin-induced nociception in C57BL/6J mouse assessed as total time of nociceptive response at 0.15 ug per paw, sc pretreated for 10 min followed by formalin challenge and measured after 20 to 60 mins (reference value: 2.18 +/- 0.183 min). It counts as functional. The note with it: dose 0.15 µg, time 30-70 min.

For data set [12], the system named is Mus musculus. Briefly: Antinociceptive activity against formalin-induced nociception in C57BL/6J mouse assessed as total time of nociceptive response at 0.0075 ug per paw, sc pretreated for 10 min followed by formalin challenge and measured after 20 to 60 mins (reference value: 2.18 +/- 0.183 min). Format: functional. The note with it: dose 0.0075 µg, time 30-70 min.

Data set [13] has as its target Transient receptor potential cation channel subfamily V member 4 (Rattus norvegicus) (UniProt Q9ERZ8). The data set is described as follows: Agonist activity at rat recombinant TRPV4 expressed in HEK293 cells assessed as increase in intracellular calcium accumulation by measuring efficacy by Fluo4-AM based assay relative to ionomycin. Format: cell-based. The conditions noted are these: filed as agonist.

Chain of Transient receptor potential cation channel subfamily V member 4 (Q9ERZ8 whole entry): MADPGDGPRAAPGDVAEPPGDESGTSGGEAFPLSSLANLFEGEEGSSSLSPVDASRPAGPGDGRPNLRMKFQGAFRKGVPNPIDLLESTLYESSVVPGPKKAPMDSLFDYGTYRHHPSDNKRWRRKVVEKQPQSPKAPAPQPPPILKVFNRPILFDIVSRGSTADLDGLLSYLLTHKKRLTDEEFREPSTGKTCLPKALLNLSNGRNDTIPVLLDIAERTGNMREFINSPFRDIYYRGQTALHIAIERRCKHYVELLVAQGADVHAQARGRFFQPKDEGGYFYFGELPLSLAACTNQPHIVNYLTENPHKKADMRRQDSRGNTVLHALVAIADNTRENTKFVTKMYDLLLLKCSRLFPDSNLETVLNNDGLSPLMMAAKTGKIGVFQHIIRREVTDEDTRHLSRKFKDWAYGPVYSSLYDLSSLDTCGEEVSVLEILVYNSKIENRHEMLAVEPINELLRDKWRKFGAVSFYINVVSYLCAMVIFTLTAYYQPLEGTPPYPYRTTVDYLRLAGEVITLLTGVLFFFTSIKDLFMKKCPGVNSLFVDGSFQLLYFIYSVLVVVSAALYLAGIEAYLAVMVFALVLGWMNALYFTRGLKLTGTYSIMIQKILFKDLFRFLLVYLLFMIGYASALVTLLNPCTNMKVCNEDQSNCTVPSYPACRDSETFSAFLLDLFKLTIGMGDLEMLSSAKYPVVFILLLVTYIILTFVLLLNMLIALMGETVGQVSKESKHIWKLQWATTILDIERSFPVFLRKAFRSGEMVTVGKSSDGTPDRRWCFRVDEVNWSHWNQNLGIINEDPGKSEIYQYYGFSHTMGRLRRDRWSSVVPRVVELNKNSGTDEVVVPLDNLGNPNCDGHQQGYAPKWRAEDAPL
T2 sequence (Q8NER1 whole entry): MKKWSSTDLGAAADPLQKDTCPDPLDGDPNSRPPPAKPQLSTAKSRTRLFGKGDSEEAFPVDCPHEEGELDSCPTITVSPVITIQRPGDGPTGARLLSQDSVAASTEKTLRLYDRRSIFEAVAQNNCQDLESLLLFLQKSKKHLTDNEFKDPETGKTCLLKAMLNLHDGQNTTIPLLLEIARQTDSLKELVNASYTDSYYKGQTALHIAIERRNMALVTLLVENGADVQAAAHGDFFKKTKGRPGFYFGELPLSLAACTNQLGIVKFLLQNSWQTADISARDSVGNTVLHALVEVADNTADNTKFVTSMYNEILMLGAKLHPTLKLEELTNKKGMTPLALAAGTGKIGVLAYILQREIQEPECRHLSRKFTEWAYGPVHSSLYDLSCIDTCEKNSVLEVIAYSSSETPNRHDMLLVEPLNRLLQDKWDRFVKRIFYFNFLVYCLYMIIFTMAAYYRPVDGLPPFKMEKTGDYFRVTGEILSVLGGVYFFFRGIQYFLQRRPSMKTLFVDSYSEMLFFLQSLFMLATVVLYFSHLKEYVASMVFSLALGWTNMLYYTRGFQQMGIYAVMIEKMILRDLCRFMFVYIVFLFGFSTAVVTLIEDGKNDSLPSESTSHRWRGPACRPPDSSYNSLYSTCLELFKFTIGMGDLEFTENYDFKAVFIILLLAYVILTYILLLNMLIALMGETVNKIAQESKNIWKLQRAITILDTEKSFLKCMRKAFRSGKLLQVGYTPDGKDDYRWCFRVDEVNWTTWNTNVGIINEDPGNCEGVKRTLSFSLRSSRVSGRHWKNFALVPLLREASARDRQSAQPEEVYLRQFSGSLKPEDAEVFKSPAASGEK
Chain of Transient receptor potential cation channel subfamily A member 1 (Rattus norvegicus) (Q6RI86 whole entry): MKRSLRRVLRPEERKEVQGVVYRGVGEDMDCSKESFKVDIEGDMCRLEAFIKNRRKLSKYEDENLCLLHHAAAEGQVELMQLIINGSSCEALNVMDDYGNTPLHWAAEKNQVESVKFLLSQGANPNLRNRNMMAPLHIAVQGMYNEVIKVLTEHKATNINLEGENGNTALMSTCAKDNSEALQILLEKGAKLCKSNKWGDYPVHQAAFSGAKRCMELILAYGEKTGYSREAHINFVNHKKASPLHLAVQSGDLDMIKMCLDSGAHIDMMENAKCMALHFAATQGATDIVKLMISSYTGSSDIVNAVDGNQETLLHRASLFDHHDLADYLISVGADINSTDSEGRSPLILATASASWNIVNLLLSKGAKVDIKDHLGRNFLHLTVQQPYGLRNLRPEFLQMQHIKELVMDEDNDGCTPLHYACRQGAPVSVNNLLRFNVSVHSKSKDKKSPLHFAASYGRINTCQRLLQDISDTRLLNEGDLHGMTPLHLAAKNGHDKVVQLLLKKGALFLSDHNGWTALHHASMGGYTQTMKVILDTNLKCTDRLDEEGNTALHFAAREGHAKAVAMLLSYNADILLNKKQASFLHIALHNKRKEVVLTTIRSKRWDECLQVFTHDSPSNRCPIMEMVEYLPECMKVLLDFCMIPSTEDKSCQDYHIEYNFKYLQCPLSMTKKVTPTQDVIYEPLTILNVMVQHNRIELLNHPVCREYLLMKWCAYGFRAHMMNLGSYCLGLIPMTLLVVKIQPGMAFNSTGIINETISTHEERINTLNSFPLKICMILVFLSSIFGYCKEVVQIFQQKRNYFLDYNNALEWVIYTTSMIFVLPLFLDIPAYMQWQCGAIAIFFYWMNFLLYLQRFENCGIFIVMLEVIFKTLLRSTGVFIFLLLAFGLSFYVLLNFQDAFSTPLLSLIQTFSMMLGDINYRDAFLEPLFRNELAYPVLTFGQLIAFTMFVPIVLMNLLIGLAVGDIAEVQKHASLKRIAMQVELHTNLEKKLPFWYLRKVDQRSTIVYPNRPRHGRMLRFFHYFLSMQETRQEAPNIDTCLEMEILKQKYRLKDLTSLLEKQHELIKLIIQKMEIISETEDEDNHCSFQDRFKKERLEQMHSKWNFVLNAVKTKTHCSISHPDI
T1 sequence (Q6RI86 whole entry): as above
Chain of Transient receptor potential cation channel subfamily M member 8 (Q8R455 whole entry): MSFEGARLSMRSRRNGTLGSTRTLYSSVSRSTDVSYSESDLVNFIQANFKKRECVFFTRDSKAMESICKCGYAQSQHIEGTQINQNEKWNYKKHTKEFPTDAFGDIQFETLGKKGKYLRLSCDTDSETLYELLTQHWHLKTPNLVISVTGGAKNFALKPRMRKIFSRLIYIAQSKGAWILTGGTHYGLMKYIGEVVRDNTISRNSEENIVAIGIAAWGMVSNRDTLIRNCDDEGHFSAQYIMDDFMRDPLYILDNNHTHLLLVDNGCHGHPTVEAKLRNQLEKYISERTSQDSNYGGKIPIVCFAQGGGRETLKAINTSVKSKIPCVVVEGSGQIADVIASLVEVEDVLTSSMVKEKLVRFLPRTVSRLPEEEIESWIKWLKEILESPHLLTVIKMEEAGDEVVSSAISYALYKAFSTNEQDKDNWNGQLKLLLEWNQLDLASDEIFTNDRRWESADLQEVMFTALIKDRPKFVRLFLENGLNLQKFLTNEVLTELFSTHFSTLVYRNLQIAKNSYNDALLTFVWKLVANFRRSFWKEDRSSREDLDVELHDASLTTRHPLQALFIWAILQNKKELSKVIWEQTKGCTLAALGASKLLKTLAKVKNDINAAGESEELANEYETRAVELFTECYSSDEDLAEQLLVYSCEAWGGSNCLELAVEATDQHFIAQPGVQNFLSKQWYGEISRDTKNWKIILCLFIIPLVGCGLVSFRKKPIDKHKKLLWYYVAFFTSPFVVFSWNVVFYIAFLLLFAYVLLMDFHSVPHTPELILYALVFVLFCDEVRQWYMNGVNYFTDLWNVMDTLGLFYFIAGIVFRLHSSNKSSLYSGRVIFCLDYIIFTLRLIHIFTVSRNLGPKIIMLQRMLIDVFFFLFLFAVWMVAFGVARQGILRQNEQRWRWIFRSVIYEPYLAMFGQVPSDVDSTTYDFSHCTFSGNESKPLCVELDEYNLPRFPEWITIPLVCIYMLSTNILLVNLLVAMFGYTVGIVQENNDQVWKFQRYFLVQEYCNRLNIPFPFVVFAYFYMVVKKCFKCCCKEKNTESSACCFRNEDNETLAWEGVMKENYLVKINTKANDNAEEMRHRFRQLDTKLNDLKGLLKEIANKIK
Chain of Transient receptor potential cation channel subfamily V member 4 (Rattus norvegicus) (Q9ERZ8 whole entry): as the sequence (Q9ERZ8 whole entry) above

With `O=C(CCCc1ccc(-c2ccccc2)s1)NCc1ccccc1`, the IC50 in data set [1] was above 100 µM.

As for `O=C(CCCc1ccc(-c2ccccc2)s1)NCc1ccc(Cl)c(Cl)c1`, the IC50 in data set [1] is above 50 µM. The EC50 in data set [2] was 12 µM.

For the compound `O=C(CCCc1ccccc1)Nc1ccc(O)cc1`, the IC50 in data set [1] was above 10 µM.

With `O=C(CCCc1ccc(I)s1)NCc1ccc(Cl)c(Cl)c1`, the IC50 in data set [1] came to 19.2 µM. In addition, the half-maximal effective concentration (EC50) in [2] is above 50 µM.

As to `O=C(CCCc1ccc(-c2ccccc2)s1)Nc1ccc(O)cc1`, in [1], the IC50 was above 50 µM.

Regarding `O=C(CCCc1ccc(-c2ccccc2)s1)NCc1ccc(O)cc1`, in [1], the IC50 is above 50 µM.

Turning to `COc1cc(CNC(=O)CCCc2ccc(I)s2)ccc1O`, the Activity entry (with HaCaT; in data set [3]; in the data set with HUVEC) was “Non-Toxic” in each case. Moreover, the values for the IC50 in [4], in [5] and in [1] were above 50 µM, 16.8 µM and above 50 µM, respectively.

`O=C(CCCc1cccs1)NCc1ccccc1`: in data set [1], the IC50 is above 100 µM.

Consider `O=C(CCCc1ccc(-c2cccnc2)s1)NCc1ccccc1`, for which the Efficacy in data set [6] was below 10%. Moreover, the IC50 in [7] and in data set [1] was above 100 µM in each case. Also, the EC50 in data set [8] was above 10 µM. Also, in [9], the result was inactive.

For `COc1ccc(CNC(=O)CCCc2ccccc2)cc1`, the IC50 in data set [1] is above 100 µM.

Take `COc1ccc(CNC(=O)CCCc2ccc(I)s2)cc1`: in data set [1], the IC50 was above 100 µM.

As for `O=C(CCCc1ccc(-c2cccnc2)s1)Nc1ccc(O)cc1`, in data set [1], the IC50 is above 100 µM.

For `O=C(CCCc1ccccc1)NCCc1ccc(O)c(O)c1`, the Efficacy in [6] was below 10%. Moreover, the figures for the IC50 in data set [7] and in data set [1] were 5.84 µM and above 10 µM, respectively. Besides, the EC50 in data set [8] is 2.63 µM. Besides, the result in [9] was inactive.

On to `O=C(CCCc1ccc(-c2cccnc2)s1)NCc1ccc(O)cc1`, for which the IC50 in [1] was above 50 µM. In [2], the EC50 stood at 27.1 µM.

On to `O=C(CCCc1ccccc1)NCc1ccccc1`, for which the Efficacy in [6] was below 10%. The IC50 in data set [7] and in data set [1] was above 100 µM throughout. In addition, in data set [8], the EC50 is above 50 µM. Besides, the outcome in [9] was inactive.

Take `COc1cc(CNC(=O)CCCc2ccc(-c3ccccc3)s2)ccc1O`: the IC50 in [4] was 27.6 µM; in data set [5], 13.8 µM; in data set [1], 33.7 µM. In data set [2], the EC50 came to 18.7 µM.

Turning to `COc1ccc(CNC(=O)CCCc2ccc(-c3cccnc3)s2)cc1`, the Efficacy in data set [6] was 21%. Moreover, the IC50 in [7] and in [1] was above 50 µM throughout. The EC50 in data set [8] and in [2] was above 50 µM in each case.

As to `O=C(CCCc1ccc(I)s1)Nc1ccc(O)cc1`, the IC50 in data set [1] is 44.1 µM. In data set [2], the EC50 was 30.3 µM.

On to `O=C(CCCc1ccc(I)s1)NCc1ccccc1`, for which the IC50 in data set [1] was above 100 µM.

As to `O=C(CCCc1ccc(I)s1)NCCc1ccc(O)c(O)c1`, the Efficacy in data set [6] was below 10%. The IC50 in [7] is 0.46 µM; in data set [1] it was above 100 µM. The EC50 in data set [8] turned out to be 1.15 µM. In [9], the outcome was inactive.

For `O=C(CCCc1ccccc1)NCc1ccc(O)cc1`, the 50% inhibitory concentration (IC50) in [1] is above 100 µM.

Consider `COc1cc(CNC(=O)CCCc2ccc(-c3cccnc3)s2)ccc1O`, for which the Activity result (in the data set on HaCaT; in [3]; in the data set with HUVEC) was “Non-Toxic” each time. The Time in the data set on Mus musculus [10] worked out at 0.758 min; in the data set on Mus musculus [11] it was 0.618 min; with Mus musculus [12], 1.95 min. Besides, the IC50 in data set [4], in data set [5] and in data set [1] was above 100 µM in each case.

As to `O=C(CCCc1ccc(-c2cccnc2)s1)NCc1ccc(Cl)c(Cl)c1`, the concentration for half-maximal inhibition (IC50) in data set [1] was above 50 µM. The EC50 in data set [2] is 10.4 µM.

`O=C(CCCc1ccc(I)s1)NCc1ccc(O)cc1`: the IC50 in data set [1] was above 100 µM.

With `CC(C)C[C@H](NC(=O)c1cc2ccccc2s1)C(=O)N1CCN(C(=O)[C@H](CO)NS(=O)(=O)c2ccc(Cl)cc2Cl)CC1`, the Efficacy in [13] was 88.5%.

In the case of `COc1cc(CNC(=O)CCCc2ccccc2)ccc1O`, in [1], the IC50 worked out at 44.5 µM. Further, in [2], the 50% effective concentration (EC50) turned out to be 27.2 µM.

As for `O=C(CCCc1ccc(-c2cccnc2)s1)NCCc1ccc(O)c(O)c1`, in [6], the Efficacy was below 10%. The IC50 was above 10 µM in data set [7] and above 100 µM in [1]. Besides, the EC50 in [8] is above 10 µM. In data set [9], the outcome was inactive.

With `O=C(CCCc1ccccc1)NCc1ccc(Cl)c(Cl)c1`, the IC50 in data set [1] is 11.9 µM. Moreover, the EC50 in [2] came to 10.7 µM.
